Measurements published in US20180340012A1, “METHODS AND CO[…] TO IMPROVING PROPERTIES OF PHARMACOLOGICAL AGENTS TARGETING NERVOUS SYSTEM” (University of Utah Research Foundation, priority 2006, published 2018).
“Also recorded” adds a separate entry of the source.

Experiments:
[1] = test system: sound-induced seizures; assay: Frings audiogenic seizure-susceptible mouse model; format: in vivo
Experimental: The two modified galanin analogs (GAL-BBB1 and GAL-BBB2) were administered i.p. to a group of Frings audiogenic seizure susceptible mice in a dose of 4 mg/kg. At various times after administration (i.e., 15, 30, 60, 120, and 240 min) each mouse was placed into a cylindrical test chamber fitted with an audio transducer and challenged with a high-intensity sound stimulus (110 dB, 11 KHz for 20 sec). Animals not displaying tonic hind-limb extension were considered protected. […] In a subsequent study, anticonvulsant efficacy was quantitated at the time to peak effect (i.e., 1 h) in a dose-response study.
The ability of individual modified analogs to prevent seizures induced by sound in the AGS-susceptible Frings mouse model can be assessed at the time of peak effect (White et al., 1992). For this test, individual mice are placed into a plexiglass cylinder (diameter, 15 cm; height, 18 cm) fitted with an audio transducer (Model AS-ZC; FET Research and Development, Salt Lake City, Utah), and exposed to a sound stimulus of 110 decibels (11 KHz) delivered for 20 seconds. Sound-induced seizures are characterized by wild running followed by loss of righting reflex with forelimb and hindlimb tonic extension. Mice not displaying hindlimb tonic extension are considered protected.
At various times after administration (i.e., 15, 30, 60, 120, and 240 min) each mouse was placed into a cylindrical test chamber fitted with an audio transducer and challenged with a high-intensity sound stimulus (110 dB, 11 KHz for 20 sec).

[2] = test system: 6 Hz limbic seizures; assay: 6 Hz limbic (psychomotor) seizure test; format: in vivo, CF-1 mice
Description: Mice not displaying limbic seizures were considered protected.

[3] = test system: clonic (s.c. Metrazol) seizures; assay: s.c. Metrazol seizure test; format: in vivo, mice; details: 4 mg/kg i.p., tested one hour later
Experimental: Mice will be placed into individual plexiglas observation boxes and observed for 30 minutes for the presence of a minimal clonic seizure. Mice not displaying clonic seizure activity will be considered protected.

[4] = test system: tonic-extension (maximal electroshock) seizures; assay: Maximal electroshock seizure test; format: in vivo, mice; details: 4 mg/kg i.p., tested one hour later
Description: Abolition of the hindleg tonic extensor component of the seizure is used as the endpoint.

[5] = test system: formalin-induced paw licking; assay: Mouse formalin test; format: in vivo
Experimental: An injection of 0.5% formalin is made into the planter region of a mouse right hind paw. This elicits a distinct biphasic behavioral profile characterized by the mouse licking the affected paw. Immediately following the injection the mouse licks the paw for about 10 minutes. This is phase 1 (acute) and is followed by a brief latent period where there is little behavioral activity. A more prolonged period of about 20 to 30 minutes of paw licking ensues which constitutes phase 2 (inflammatory).
Prior to the administration of the active peptide, drug or vehicle each mouse undergoes a 15-minute conditioning period in one of several 6″ tall plexiglass observation tubes (4″ diameter) that are placed in front of a mirror. […] One hour after treatment, formalin was injected sub-dermally (20 μl; 27 gauge needle) into the plantar surface of the right hind foot. The bevel of the needle is placed facing down toward the skin surface. Following the injection of the formalin each animal is observed for first 2 minutes of each 5 minute epoch for a total of 45 minutes. The cumulative length of licking for each 2 minute time period was measured. An animal receiving the requisite volume of vehicle was alternated with each mouse given GAL-BBB2, Gal 1-16, or gabapentin. Animals were euthanized following the conclusion of the experiment.
Area under the curve (AUC) determination was made using the GraphPad Prism Version 3.03. Total AUC is calculated for both the test and control groups for both the acute and inflammatory phases. The AUC for individual animals for each phase is also calculated and converted to percentage of total AUC of control. The average percentages and SEM for both the drug treated and control were calculated and tested for significant difference.

[6] = test system: mechanical allodynia; assay: Sciatic nerve ligation model, mechanical allodynia; format: in vivo, rats
Experimental: Just prior to surgery, rats are treated subcutaneously with 0.1 to 0.5 mg/kg of the long acting opiate buprenorphine. Rats are then anesthetized with pentobarbital and the depth of anesthesia monitored by their response to a tail pinch and observation of the depth of respiration. Sterile technique was used throughout the surgery.
The upper thigh of each rat was shaved and wiped off with ethanol and betadine. A small incision was made in the skin and through the underlying muscle of the upper thigh until the sciatic nerve was exposed. The nerve was then separated from the surrounding connective tissue and slightly elevated by a pair of fine, curved forceps. Approximately ⅓ to ½ of the nerve was then tied off by passing a needle and nylon suture (7.0) through the nerve. The muscle and skin incision was then closed sutured separately with 5.0 suture and the animals were kept warm by placing on a thermostatically controlled heat blanket until they have recovered from the anesthesia. This procedure was conducted on the right side (ipsilateral) while a sham surgery was performed on the left hind leg (contralateral). The latter involves a similar procedure with the exception that the sciatic nerve on this side was only exposed and not ligated. Twelve hours post surgery, a second dose of buprenorphine was administered to minimize any discomfort from the surgical procedure. Rats were closely monitored daily for the development of infection or untoward effects of the surgery.
After an appropriate time for recovery (e.g., 7-14 days) the animals were tested for the development of mechanical allodynia (pain response to a non-noxious stimulus). For this study, the animals placed in a bottomless plexiglass box placed on a wire mesh (¼″) platform. After a 30-60 minute acclimation period, a baseline mechanical sensitivity was determined. […] This procedure was repeated until a 50% threshold for withdrawal could be determined.

[7] = test system: secondarily generalized partial seizures; assay: Hippocampal kindled rat model of partial epilepsy; format: in vivo; details: i.p.; decreases from 5

Sar-Trp-Thr-Leu-Asn-Ser-Ala-Gly-Tyr-Leu-Leu-Gly-Pro-Lys-Lys-(Lys-palm)-Lys-NH2 [NAX 5055]
blocking sound-induced seizures ([1]; 4 mg/kg i.p., one hour after administration): effective
duration of anticonvulsant effect ([1]; 4 mg/kg, i.p.): between two and four hours
onset of anticonvulsant effect ([1]; 4 mg/kg, i.p.): ≤ 30 min
anticonvulsant ED50 (approximate) ([1]; given i.p., refers to Example 2): ~3 mg/kg
median effective dose ED50 (95% confidence intervals) ([1]; i.p., at time to peak effect 1 h, Probit analysis): 3.2 (2.3−6.1) mg/kg
activity in pharmaco-resistant seizure model ([2]; 4 mg/kg): active
% Protection at 1 hour ([2]; 4 mg/kg, i.p., 1 h, model not printed at tables, ED50s of same analogs called 6 Hz model): 100%
% Protection at 2 hours ([2]; 4 mg/kg, i.p., 2 h): 100%
% Protection at 4 hours ([2]; 4 mg/kg, i.p., 4 h): 0%
potency and efficacy compared with native peptide ([2]; 6 Hz (32 mA) test): more potent and more efficacious
ED50 in the 6 Hz model ([2]; i.p.): 0.8 mg/kg
dose in parentheses in Table 14 (ED50) ([2]; i.p., not labelled in table): 0.8 mg/kg
ED50 following i.c.v. administration ([2]; intracerebroventricular, 6 Hz (32 mA) test, FIG. 22): 0.07 nmol
anticonvulsant activity following subcutaneous administration ([2]; s.c., 32 mA, 6 Hz, 60 min after injection): preserved; also recorded: retained
protection in s.c. Metrazol seizure test [3]: 25%
activity in maximal electroshock seizure test [4]: completely inactive
effect of 5 mg/kg compared with 10 mg/kg gabapentin ([5]; 5 mg/kg i.p.): equivalent
paw licking, acute and inflammatory phase ([5]; 0.52-5 mg/kg i.p., 60 min before formalin): dose-dependent reduction
Active at (flat phase II) ([5]; mouse formalin assay of inflammatory pain): 5 mg/kg (“flat phase II”)
potency compared with morphine ([6]; 2 mg/kg i.p. vs 2 mg/kg morphine): equi-potent
potency compared with gabapentin ([6]; 2 mg/kg i.p. vs 40 mg/kg gabapentin): several fold more potent
threshold for mechanical allodynia ([6]; 2 mg/kg i.p., 30 min to 6 h): time-dependent increase
seizure score [7]: 3
